Consider eleven compounds from patent US8106055B2, “Substituted amide compounds” (Gruenenthal GmbH, priority 2007, dated 2012).

For orientation: inhibition means the relative decrease from the control value, in per cent.

For this assay, the target named is T1, serotonin (5-HT) reuptake (Rattus norvegicus, UniProt P31652).
T1 construct: synaptosomes are freshly isolated from areas of the rat brain; from tissue; host or cells: rat brain synaptosomes (P2 fraction)
Nature of the assay: Inhibition of serotonin (5HT) reuptake in synaptosomes from rat brain. In kind it is biochemical. The conditions noted are these: test concentration of 10 μM; read-out: 5-HT (inhibition of reuptake of serotonin, % inhibition). The method, boiled down:
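Compounds screened at 10 μM and reported as percent inhibition of serotonin uptake. Uptake measured in a freshly prepared P2 synaptosomal fraction from rat brain.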

T1 sequence (P31652 whole entry): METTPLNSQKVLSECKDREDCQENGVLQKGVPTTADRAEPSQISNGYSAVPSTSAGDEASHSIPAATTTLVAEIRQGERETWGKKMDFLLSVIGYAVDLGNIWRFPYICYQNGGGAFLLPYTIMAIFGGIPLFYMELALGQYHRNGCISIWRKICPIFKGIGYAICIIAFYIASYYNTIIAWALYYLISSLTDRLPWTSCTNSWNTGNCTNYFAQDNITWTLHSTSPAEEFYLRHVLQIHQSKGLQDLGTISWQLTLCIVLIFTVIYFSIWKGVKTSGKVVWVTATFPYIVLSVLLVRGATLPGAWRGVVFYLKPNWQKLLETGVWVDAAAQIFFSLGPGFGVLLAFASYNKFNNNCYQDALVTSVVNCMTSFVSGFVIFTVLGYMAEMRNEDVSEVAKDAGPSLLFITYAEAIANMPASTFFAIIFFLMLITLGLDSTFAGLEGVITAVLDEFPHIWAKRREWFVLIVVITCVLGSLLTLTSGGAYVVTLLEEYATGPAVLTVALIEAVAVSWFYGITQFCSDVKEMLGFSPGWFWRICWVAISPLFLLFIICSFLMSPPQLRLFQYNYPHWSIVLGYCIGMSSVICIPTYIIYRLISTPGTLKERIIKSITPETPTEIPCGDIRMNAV

For the compound `CN(C)C(c1cccs1)C1CCC(CNC(=O)COC2CCCCC2N(C)S(=O)(=O)c2ccc(Cl)c(Cl)c2)CC1` (centres unmarked) [Example 31, 2-(2-(3,4-dichloro-N-methylphenylsulfonamido)cyclohexyloxy)-N-((4-((dimethylamino)(thiophen-2-yl)methyl)cyclohexyl)methyl)acetamide], the inhibition at 10 µM was 88%.
The same measure for `CN(C)C(c1cccs1)C1CCC(CCNC(=O)COCCN(C)S(=O)(=O)c2cccc(C(F)(F)F)c2)CC1` (centres unmarked) [Example 32, N-(2-(4-((dimethylamino)(thiophen-2-yl)methyl)cyclohexyl)ethyl)-2-(2-(N-methyl-3-(trifluoromethyl)phenylsulfonamido)ethoxy)acetamide]: 97%; for `CN(C)C(c1ccccc1)C1CCC(NC(=O)COCCN(C)S(=O)(=O)c2ccc(Cl)cc2Cl)CC1` (centres unmarked) [Example 33, 2-(2-(2,4-dichloro-N-methylphenylsulfonamido)ethoxy)-N-(4-((dimethylamino)(phenyl)methyl)cyclohexyl)acetamide]: 73%; for `CN(C)C(c1ccccc1)C1CCC(NC(=O)COCCN(C)S(=O)(=O)c2c(F)c(F)c(F)c(F)c2F)CC1` (centres unmarked) [Example 136, N-(4-((dimethylamino)(phenyl)methyl)cyclohexyl)-2-(2-(2,3,4,5,6-pentafluoro-N-methylphenylsulfonamido)ethoxy)acetamide]: 83%.
For `COc1cc(C)c(S(=O)(=O)N(C)CCOCC(=O)NCC2CCC(C(c3ccccc3)N(C)C)CC2)c(C)c1` (centres unmarked) [Example 137, N-((4-((dimethylamino)(phenyl)methyl)cyclohexyl)methyl)-2-(2-(4-methoxy-N,2,6-trimethylphenylsulfonamido)ethoxy)acetamide], the inhibition at 10 µM stood at 89%.
The same measure for `CN(C)C(c1cccs1)C1CCC(CCNC(=O)COC2CCN(S(=O)(=O)c3ccc(F)cc3)C2)CC1` (centres unmarked) [Example 138, N-(2-(4-((dimethylamino)(thiophen-2-yl)methyl)cyclohexyl)ethyl)-2-(1-(4-fluorophenylsulfonyl)pyrrolidin-3-yloxy)acetamide]: 98%; for `CN(C)C(c1cccc(F)c1)C1CCC(NC(=O)COC2CCN(S(=O)(=O)c3cccc(C(F)(F)F)c3)C2)CC1` (centres unmarked) [Example 139, N-(4-((dimethylamino)(3-fluorophenyl)methyl)cyclohexyl)-2-(1-(3-(trifluoromethyl)phenylsulfonyl)pyrrolidin-3-yloxy)acetamide]: 79%; for `Cc1cc(C)c(S(=O)(=O)N2CCC(OCC(=O)NC3CCC(C(c4cccc(F)c4)N(C)C)CC3)C2)c(C)c1` (centres unmarked) [Example 140, N-(4-((dimethylamino)(3-fluorophenyl)methyl)cyclohexyl)-2-(1-(mesitylsulfonyl)pyrrolidin-3-yloxy)acetamide]: 72%.
To `Cc1cc(C)c(S(=O)(=O)N2CCC(OCC(=O)NCC3CCC(C(c4cccc(F)c4)N(C)C)CC3)C2)c(C)c1` (centres unmarked) [Example 141, N-((4-((dimethylamino)(3-fluorophenyl)methyl)cyclohexyl)methyl)-2-(1-(mesitylsulfonyl)pyrrolidin-3-yloxy)acetamide] belongs 80%; to `COc1ccc(S(=O)(=O)N(C)CCOCC(=O)NCC2CCC(C(c3cccs3)N(C)C)CC2)cc1` (centres unmarked) [Example 142, N-((4-((dimethylamino)(thiophen-2-yl)methyl)cyclohexyl)methyl)-2-(2-(4-methoxy-N-methylphenylsulfonamido)ethoxy)acetamide], 70%; to `COc1cc(C)c(S(=O)(=O)N2CCC(OCC(=O)NCC3CCC(C(c4ccccc4)N(C)C)CC3)CC2)c(C)c1C` (centres unmarked) [Example 143, N-((4-((dimethylamino)(phenyl)methyl)cyclohexyl)methyl)-2-(1-(4-methoxy-2,3,6-trimethylphenylsulfonyl)piperidin-4-yloxy)acetamide], 93%.
